Results as given in US11464750B2, “Anticancer agent and use thereof” (priority 2017, dated 2022).

Legend:
Type in all cases: cell-based, human
BALL-1 cells = assay: MTT assay, BALL-1 cells; conditions: 0.01, 0.05, 0.1, 0.5, and 1 μM, 48 hours
Protocol: BALL-1 cells of a cell line derived from […], TKG0210 cells of a human myeloid leukemia cell line, and TKG0377 cells of a human T cell acute leukemia cell line were seeded in 96-well plates at 2.5×10^4 cells/well/100 μL, and cultured for 48 hours in the presence of 3EZ,20Ac-ingenol at final concentrations of 0 (control), 0.5, 1, 5, and 10 μM. Subsequently, cell proliferation was examined by MTT assay using a Cell Proliferation Kit 1 (Roche Applied Science).
BALL-1 cells were exposed to 3EZ,20Ac-ingenol, 3EE,20Ac-ingenol, 20Ac-ingenol, and ingenol at concentrations of 0.01, 0.05, 0.1, 0.5, and 1 μM for 48 hours. Thereafter, cell proliferation was examined by MTT assay. Cells that were not exposed to the chemical were used as controls. The chemical formulas of 3EZ,20Ac-ingenol, 3EE,20Ac-ingenol, and 20Ac-ingenol are as described above. The chemical formula of ingenol is shown in the following Formula (7).

JeKo-1 cells = assay: MTT assay, JeKo-1 cells; conditions: 48 hours
Protocol: (§1) JeKo-1 cells of a cell line derived from a human mantle cell lymphoma were seeded in a 96-well plate at 1×10^4 cells/well/100 μL. In addition, Panc-1 cells of a cell line derived from a human pancreatic cancer were seeded in a 96-well plate at 3×10^3 cells/well/100 μL.
(§2) Subsequently, 3EZ,20Ac-ingenol at final concentrations of 0 (control), 0.1, 0.5, 1, 5, and 10 μM was added the wells of the respective cells, and culturing was performed for 48 hours. Subsequently, cell proliferation was examined by MTT assay using a Cell Proliferation Kit I (Roche Applied Science).
(§3) First, JeKo-1 cells were seeded in a 96-well plate at 1×10^4 cells/well/100 μL. Subsequently, irinotecan at a final concentration of 0 (control), 0.5, 1, 5, 10, 20, and 30 μM was added to the wells of the cells and culturing was performed for 48 hours. In addition, Panc-1 cells were seeded in a 96-well plate at 3×10^3 cells/well/100 μL. Subsequently, irinotecan at a final concentration of 0 (control), 0.5, 1, 5, 10, 20, 30, and 50 μM was added to the wells of the cells and culturing was performed for 48 hours. Subsequently, cell proliferation was examined by MTT assay using a Cell Proliferation Kit I (Roche Applied Science).

Panc-1 cells = assay: MTT assay, Panc-1 cells; conditions: irinotecan, 48 hours
Protocol: as §1, §2, §3

Compound | inhibition of proliferation of the BALL-1 cells (BALL-1 cells) | proliferation inhibition of JeKo-1 cells (JeKo-1 cells; 1 to 20 μM of irinotecan) | IC50 (JeKo-1 cells; Homo sapiens, JeKo-1, MTT assay, read-out: IC50 with respect to the JeKo-1 cells) [µM] | resistance of Panc-1 cells (Panc-1 cells)
CC1=C[C@]23C(=O)[C@@H](C=C(CO)[C@@H](O)[C@]2(O)[C@H]1O)[C@H]1[C@@H](C[C@H]3C)C1(C)C [ingenol, reference compound] | little effect on proliferation | – | – | –
CCCCC/C=C/C=C/C(=O)O[C@H]1C(C)=C[C@]23C(=O)[C@@H](C=C(COC(C)=O)[C@@H](O)[C@]12O)[C@H]1[C@@H](C[C@H]3C)C1(C)C [3EE,20Ac-ingenol] | a significant level of inhibition of proliferation | – | – | –
CC(=O)OCC1=C[C@@H]2C(=O)C3(C=C(C)[C@H](O)[C@@]3(O)[C@@H]1O)[C@H](C)C[C@@H]1[C@H]2C1(C)C [20Ac-ingenol] | inhibition of proliferation of the BALL-1 cells was observed | – | – | –
CCc1c2c(nc3ccc(OC(=O)N4CCC(N5CCCCC5)CC4)cc13)-c1cc3c(c(=O)n1C2)COC(=O)[C@]3(O)CC [irinotecan, reference compound] | – | grown cells were almost eliminated | 5 | showed resistance
